# In ChEMBL document CHEMBL3351836, “Inhibition of carbonic anhydrase isoforms I, II, IX and XII with novel Schiff bases: identification of selective inhibitors for the tumor-associated isoforms over the cytosolic ones” (Bioorg Med Chem, 2014):
# Molecular target: Carbonic anhydrase 9 (Homo sapiens, UniProt Q16790)
# Assay: Inhibition of human CA-9 after 15 mins by stopped-flow CO2 hydration method
row,SMILES,Ki [nM]
1,NS(=O)(=O)c1ccc(/N=C/c2ccc(Br)cc2O)cc1,28.1
2,NS(=O)(=O)c1ccc(/N=C/c2csc3ccccc23)cc1,197
3,NS(=O)(=O)c1ccc(CC/N=C/c2ccc(-c3ccccc3)cc2)cc1,244
4,NS(=O)(=O)c1ccc(/N=C/c2ccc(-c3ccccc3)cc2)c(F)c1,113
5,CSc1ccc(/C=N/CCc2ccc(S(N)(=O)=O)cc2)cc1,23.6
6,N#Cc1ccc(/C=N/CCc2ccc(S(N)(=O)=O)cc2)cc1,18.5
7,NS(=O)(=O)c1ccc(CC/N=C/c2ccc(Br)cc2O)cc1,106

# More lines, now with the values ahead:
row,Ki [nM],SMILES
1,162,NS(=O)(=O)c1ccc(/N=C/c2ccc(-c3ccccn3)cc2)cc1
2,193,NS(=O)(=O)c1ccc(CC/N=C/c2ccc(S(=O)(=O)O)o2)cc1
3,1880,NS(=O)(=O)c1ccc(CC/N=C/c2c[nH]c3ccc(Br)cc23)cc1
4,27.9,NS(=O)(=O)c1ccc(CC/N=C/c2ccc(-c3ccccn3)cc2)cc1
5,251,NS(=O)(=O)c1ccc(CC/N=C/c2cccc(Br)c2O)cc1
6,213,NS(=O)(=O)c1ccc(CC/N=C/c2c(F)c(F)cc(F)c2F)cc1
7,1870,COc1ccc(/C=N/CCc2ccc(S(N)(=O)=O)cc2)c(O)c1
8,154,COc1cc([N+](=O)[O-])ccc1/C=N/CCc1ccc(S(N)(=O)=O)cc1
9,165,NS(=O)(=O)c1ccc(/N=C/c2ccco2)c(F)c1
